Values of other authors in US20040248232A1, “Method for treating Alzheimer's dementia” (priority 2003, published 2004).

Assays:
purified rat cathepsin L = purified rat cathepsin L (Rattus norvegicus, UniProt P07154); settings: cited from earlier work
purified rat cathepsin B = purified rat cathepsin B (Rattus norvegicus, UniProt P00787); settings: at 10 uM; cited from earlier work
cathepsin K = target: T1, cathepsin K (Homo sapiens, UniProt P43235); settings: at micromolar levels; cited from earlier work
T1 sequence (P43235 115-329): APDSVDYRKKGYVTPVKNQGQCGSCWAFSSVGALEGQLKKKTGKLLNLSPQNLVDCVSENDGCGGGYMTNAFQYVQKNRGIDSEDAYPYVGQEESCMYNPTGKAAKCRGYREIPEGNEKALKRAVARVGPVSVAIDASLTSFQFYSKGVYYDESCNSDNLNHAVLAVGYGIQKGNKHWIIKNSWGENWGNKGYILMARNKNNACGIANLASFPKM

cathepsin S [1] = target: T2, cathepsin S (Homo sapiens, UniProt P25774); settings: at micromolar levels; cited from earlier work
cathepsin C = cathepsin C (Homo sapiens, UniProt P53634); settings: at micromolar levels; cited from earlier work
[2] = target: T3, cathepsin L activity in liver (Mus musculus, UniProt P06797); settings: intraperitoneal injection, mice; cited from earlier work
T3 construct: host or cells: mouse liver (endogenous, in vivo dosing)

cathepsin B activity = target: T4, cathepsin B activity (Mus musculus, UniProt P10605); settings: intraperitoneal injection, mice; cited from earlier work
T4 construct: host or cells: mouse (liver implied by the sentence), endogenous, in vivo dosing

Colon-26 cancer cells = settings: intravenous or p.o. administration, mice; cited from earlier work
[3] = test system: human melanoma cells A375; settings: intravenous or p.o. administration, mice; cited from earlier work
[4] = test system: cancer induced osteoporosis; settings: intravenous or p.o. administration, mice; cited from earlier work
[5] = target: T5, cathepsin L activity in DLD-1 cells (Homo sapiens, UniProt P07711); settings: cited from earlier work
T5 construct: host or cells: DLD-1 cells (endogenous)

cathespin B = cathespin B (Homo sapiens, UniProt P07858); settings: cited from earlier work
[6] = target: recombinant human cathepsin B (Homo sapiens, UniProt P07858); settings: cited from earlier work
cathepsin L = cathepsin L (Homo sapiens, UniProt P07711); settings: relative to recombinant human cathepsin B; cited from earlier work
cathepsin S [7] = target: T2, cathepsin S; settings: relative to recombinant human cathepsin B; cited from earlier work

T2 sequence (P25774 115-331, species assumed): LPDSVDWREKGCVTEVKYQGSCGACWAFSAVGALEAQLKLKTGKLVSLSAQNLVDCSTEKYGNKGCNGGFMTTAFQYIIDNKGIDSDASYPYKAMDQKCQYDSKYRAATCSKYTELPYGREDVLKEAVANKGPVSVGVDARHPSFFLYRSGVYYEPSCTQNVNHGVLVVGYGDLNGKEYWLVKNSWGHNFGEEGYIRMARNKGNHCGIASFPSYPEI
Chain of purified rat cathepsin L (P07154 114-334): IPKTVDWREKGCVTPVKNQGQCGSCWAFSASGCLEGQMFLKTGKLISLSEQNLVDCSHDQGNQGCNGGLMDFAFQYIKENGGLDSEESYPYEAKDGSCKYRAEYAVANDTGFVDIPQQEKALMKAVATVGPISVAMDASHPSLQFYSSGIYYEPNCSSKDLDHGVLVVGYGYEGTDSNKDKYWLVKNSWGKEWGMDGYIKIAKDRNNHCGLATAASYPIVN
T3 sequence (P06797 114-334): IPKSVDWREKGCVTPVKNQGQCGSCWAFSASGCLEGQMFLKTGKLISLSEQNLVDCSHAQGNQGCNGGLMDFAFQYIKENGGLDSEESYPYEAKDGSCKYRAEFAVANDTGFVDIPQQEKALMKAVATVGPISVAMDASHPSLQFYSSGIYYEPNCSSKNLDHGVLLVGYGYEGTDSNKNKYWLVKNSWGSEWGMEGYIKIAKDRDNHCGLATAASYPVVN
T5 sequence (P07711 114-333): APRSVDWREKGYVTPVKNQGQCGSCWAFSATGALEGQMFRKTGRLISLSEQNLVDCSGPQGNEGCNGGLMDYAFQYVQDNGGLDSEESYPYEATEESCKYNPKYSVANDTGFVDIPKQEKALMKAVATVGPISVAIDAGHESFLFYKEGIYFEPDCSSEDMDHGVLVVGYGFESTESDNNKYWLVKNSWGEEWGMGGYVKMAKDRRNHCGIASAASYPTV
Chain of cathepsin L (P07711 114-333, species assumed): as the sequence (P07711 114-333) above
Chain of cathepsin C (P53634 25-463): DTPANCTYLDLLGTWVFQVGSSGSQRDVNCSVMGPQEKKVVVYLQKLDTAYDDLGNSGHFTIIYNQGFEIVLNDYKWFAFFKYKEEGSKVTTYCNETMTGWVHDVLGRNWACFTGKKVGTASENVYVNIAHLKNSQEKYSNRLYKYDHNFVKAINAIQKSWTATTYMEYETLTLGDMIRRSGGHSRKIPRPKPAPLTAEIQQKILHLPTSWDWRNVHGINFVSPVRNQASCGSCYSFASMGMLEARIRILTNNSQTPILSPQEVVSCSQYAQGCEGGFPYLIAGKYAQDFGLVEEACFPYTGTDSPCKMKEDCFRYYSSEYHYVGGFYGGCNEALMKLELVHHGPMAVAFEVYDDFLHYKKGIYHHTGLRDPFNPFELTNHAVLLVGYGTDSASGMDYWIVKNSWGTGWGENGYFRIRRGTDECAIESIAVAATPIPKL
Chain of purified rat cathepsin B (P00787 80-333): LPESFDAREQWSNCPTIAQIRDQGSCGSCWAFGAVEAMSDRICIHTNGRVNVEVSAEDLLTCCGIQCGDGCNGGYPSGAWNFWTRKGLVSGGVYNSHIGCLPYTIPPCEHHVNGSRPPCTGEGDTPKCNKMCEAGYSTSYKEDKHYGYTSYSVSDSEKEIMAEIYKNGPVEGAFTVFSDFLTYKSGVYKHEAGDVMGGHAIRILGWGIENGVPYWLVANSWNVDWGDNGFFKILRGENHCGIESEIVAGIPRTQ
T4 sequence (P10605 80-333): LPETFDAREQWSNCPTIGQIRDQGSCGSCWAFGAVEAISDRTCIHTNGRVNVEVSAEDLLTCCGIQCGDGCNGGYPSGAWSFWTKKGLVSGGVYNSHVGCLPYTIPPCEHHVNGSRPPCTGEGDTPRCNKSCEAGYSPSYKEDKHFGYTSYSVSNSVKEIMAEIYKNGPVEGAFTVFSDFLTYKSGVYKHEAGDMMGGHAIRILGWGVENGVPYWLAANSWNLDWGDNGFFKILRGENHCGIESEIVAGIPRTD

Structure (SMILES): CN(C)C(=O)[C@H](Cc1ccccc1)NC(=O)C1OC1C(=O)NCCc1ccccn1 (stereo in doubt) [CLIK-148]
- inhibition of purified rat cathepsin L activity (purified rat cathepsin L; at 1 uM): completely inhibited
- level at which purified rat cathepsin L activity is inhibited (purified rat cathepsin L): submicromolar levels
- effect on purified rat cathepsin B activity (purified rat cathepsin B): no effect
- activity on cathepsin K (cathepsin K): minimal activities
- activity on cathepsin S (cathepsin S [1]): minimal activities
- activity on cathepsin C (cathepsin C): minimal activities
- cathepsin L activity in liver [2]: dose dependently inhibited
- cathepsin B activity (cathepsin B activity): no effect
- bone metastasis of Colon-26 cancer cells (Colon-26 cancer cells): blocked bone metastasis
- bone metastasis of human melanoma cells A375 [3]: blocked bone metastasis
- cancer induced osteoporosis [4]: blocked cancer induced osteoporosis

Structure (SMILES): CC(C)C[C@H](NC(=O)[C@H]1CCCN1C#N)C(=O)OCc1ccccc1 [1-cyano-(D)-prolylleucine benzyl ester]
- cathepsin L activity in DLD-1 cells [5]: completely inhibited
- activity on cathespin B (cathespin B): minimal activity

Structure (SMILES): Cc1cccc(C[C@H](NC(=O)c2ccc(F)cc2F)C(=O)N[C@@H](C#N)COCc2cccc(C(=O)O)c2)c1 [N-[2-[(3-Carboxyphenyl)methoxyl-1-(S)-cyanoethyl]-3-methyl-N-(2,4-difluorobenzoyl)-L-phenylalaninamide]
- recombinant human cathepsin B activity [6]: inhibit
- fold less potent in blocking cathepsin L than cathepsin B (cathepsin L): approximately 100 fold
- fold less potent in blocking cathepsin S than cathepsin B (cathepsin S [7]): approximately 100 fold
